Measured values reported in patent US12398120B2, “Substituted hydantoinamides as ADAMTS7 antagonists” (BAYER AKTIENGESELLSCHAFT, priority 2019, dated 2025).

The compounds below were run against ADAMTS4 (Homo sapiens (Human), UniProt O75173) (assay: Selectivity assay for ADAMTS-7 modulators: ADAMTS4 (FRET substrate)). Conditions: ADAMTS4 (R&D 4307-AD) 50 nM, substrate Dabcyl-EEVKAKVQPY-Glu(Edans)-NH2 1 μM, 120 min, 32° C.
Assay type: biochemical
Experimental: 1 μl test compound solution (dissolved in DMSO, at the corresponding concentration) or pure DMSO as a control was added per well. The enzymatic reaction was initiated by addition of 25 μl of the respective concentration of the respective FRET substrate (see table 2 below) in reaction buffer.
The increase of fluorescence intensity was measured in appropriate fluorescence plate reader (e.g. TECAN Ultra) using the respective wavelengths for excitation and emission. IC50 values were calculated from percentage of inhibition of enzyme activity as a function of test compound concentration.

Sequence of ADAMTS4 (O75173 213-685): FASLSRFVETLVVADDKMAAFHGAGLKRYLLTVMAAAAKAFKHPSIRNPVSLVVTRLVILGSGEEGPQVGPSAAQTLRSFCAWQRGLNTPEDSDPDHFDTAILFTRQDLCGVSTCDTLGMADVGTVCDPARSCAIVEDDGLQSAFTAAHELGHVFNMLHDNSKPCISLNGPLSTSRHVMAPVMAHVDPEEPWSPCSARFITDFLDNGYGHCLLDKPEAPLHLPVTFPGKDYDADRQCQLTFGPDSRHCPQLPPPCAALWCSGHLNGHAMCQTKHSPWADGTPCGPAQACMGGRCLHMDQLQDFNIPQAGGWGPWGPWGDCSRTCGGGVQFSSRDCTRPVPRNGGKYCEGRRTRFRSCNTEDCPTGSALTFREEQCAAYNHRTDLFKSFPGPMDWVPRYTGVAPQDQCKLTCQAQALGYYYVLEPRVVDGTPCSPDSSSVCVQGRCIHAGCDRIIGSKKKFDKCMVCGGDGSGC

Going from `Cc1cnoc1C1(CNC(=O)c2ccccc2-c2ccc(C(F)(F)F)cc2)NC(=O)NC1=O` (racemic) [Example 59, Rac-N-{[4-(4-Methyl-1,2-Oxazol-5-Yl)-2,5-Dioxoimidazolidin-4-Yl]Methyl}-4′-(Trifluoromethyl)[Biphenyl]-2-Carboxamide] to `Cc1cnoc1C1(CNC(=O)c2ccccc2-c2ccc(C(F)(F)F)nc2)NC(=O)NC1=O` (racemic) [Example 77, Rac-N-{[4-(4-Methyl-1,2-Oxazol-5-Yl)-2,5-Dioxoimidazolidin-4-Yl]Methyl}-2-[6-(Trifluoromethyl)Pyridin-3-Yl]Benzamide], the IC50 rises from 23 µM to 40 µM (1.7-fold). The first is the more potent here.

`Cc1nn(C)cc1C1(CNC(=O)c2ccccc2-c2ccc(C(F)(F)F)cc2)NC(=O)NC1=O` (racemic) [Example 60, Rac-N-{[4-(1,3-Dimethyl-1H-Pyrazol-4-Yl)-2,5-Dioxoimidazolidin-4-Yl]Methyl}-4′-(Trifluoromethyl)[Biphenyl]-2-Carboxamide] and `Cc1nscc1C1(CNC(=O)c2ccccc2-c2ccc(C(F)(F)F)cc2)NC(=O)NC1=O` (racemic) [Example 63, Rac-N-{[4-(3-Methyl-1,2-Thiazol-4-Yl)-2,5-Dioxoimidazolidin-4-Yl]Methyl}-4′-(Trifluoromethyl)[Biphenyl]-2-Carboxamide] are within 1.5-fold of each other in IC50: 15 µM for the first, 13 µM for the second.

`Cc1cnn(C)c1C1(CNC(=O)c2ccccc2-c2ccc(C(F)(F)F)cc2)NC(=O)NC1=O` (racemic) [Example 61, Rac-N-{[4-(1,4-Dimethyl-1H-Pyrazol-5-Yl)-2,5-Dioxoimidazolidin-4-Yl]Methyl}-4′-(Trifluoromethyl)[Biphenyl]-2-Carboxamide] and `Cc1cnsc1C1(CNC(=O)c2ccccc2-c2ccc(C(F)(F)F)cc2)NC(=O)NC1=O` (racemic) [Example 97, Rac-N-{[4-(4-Methyl-1,2-Thiazol-5-Yl)-2,5-Dioxoimidazolidin-4-Yl]Methyl}-4′-(Trifluoromethyl)[Biphenyl]-2-Carboxamide] are within 1.5-fold of each other in IC50: 7.4 µM for the first, 7.2 µM for the second.

`Cc1nsnc1C1(CNC(=O)c2ccccc2-c2ccc(C(F)(F)F)cc2)NC(=O)NC1=O` (racemic) [Example 62, Rac-N-{[4-(4-Methyl-1,2,5-Thiadiazol-3-Yl)-2,5-Dioxoimidazolidin-4-Yl]Methyl}-4′-(Trifluoromethyl)[Biphenyl]-2-Carboxamide] and `O=C1NC(=O)C(CNC(=O)c2ccccc2-c2ccc(C(F)(F)F)cc2)(c2cscn2)N1` (racemic) [Example 196, Rac-N-{[2,5-Dioxo-4-(1,3-Thiazol-4-Yl)Imidazolidin-4-Yl]Methyl}-4′-(Trifluoromethyl)[Biphenyl]-2-Carboxamide] are within 1.5-fold of each other in IC50: 26 µM for the first, 30 µM for the second.

`CCC1(CNC(=O)c2ccccc2-c2ccc(C(F)(F)F)cc2)NC(=O)NC1=O` (racemic) [Example 81, Rac-N-[(4-Ethyl-2,5-Dioxoimidazolidin-4-Yl)Methyl]-4′-(Trifluoromethyl)[Biphenyl]-2-Carboxamide] and `CC1(CNC(=O)c2ccccc2-c2ccc(C(F)(F)F)cc2)NC(=O)NC1=O` (racemic) [Example 95, Rac-N-[(4-Methyl-2,5-Dioxoimidazolidin-4-Yl)Methyl]-4′-(Trifluoromethyl)[Biphenyl]-2-Carboxamide] cannot be ordered by IC50: over 50 µM for the first, over 50 µM for the second.

First: O=C1NC(=O)C(CNC(=O)c2ccccc2-c2ccc(C(F)(F)F)cc2)(c2cncn2CC(F)(F)F)N1 (racemic) [Example 94, Rac-N-({2,5-Dioxo-4-[1-(2,2,2-Trifluoroethyl)-1H-Imidazol-5-Yl]Imidazolidin-4-Yl}Methyl)-4′-(Trifluoromethyl)[Biphenyl]-2-Carboxamide]
Second: Cc1c(C2(CNC(=O)c3ccccc3-c3ccc(C(F)(F)F)cc3)NC(=O)NC2=O)cnn1CC(F)(F)F (racemic) [Example 98, Rac-N-({4-[5-Methyl-1-(2,2,2-Trifluoroethyl)-1H-Pyrazol-4-Yl]-2,5-Dioxoimidazolidin-4-Yl}Methyl)-4′-(Trifluoromethyl)[Biphenyl]-2-Carboxamide]
The IC50 of the first is 3.9-fold lower: 5.4 µM for the first, 21 µM for the second.

First: Cc1ccc(-c2ccccc2C(=O)NCC2(c3ccccn3)NC(=O)NC2=O)cc1 (racemic) [Example 164, Rac-N-{[2,5-Dioxo-4-(Pyridin-2-Yl)Imidazolidin-4-Yl]Methyl}-4′-Methyl[Biphenyl]-2-Carboxamide]
Second: Cc1ccc(-c2ccccc2C(=O)NCC2(c3nccs3)NC(=O)NC2=O)cc1 (racemic) [Example 200, Rac-N-{[2,5-Dioxo-4-(1,3-Thiazol-2-Yl)Imidazolidin-4-Yl]Methyl}-4′-Methyl[Biphenyl]-2-Carboxamide]
The IC50 of the first is 2-fold lower: 14 µM for the first, 28 µM for the second. The first is the more potent here.

`Cc1scnc1C1(CNC(=O)c2cc(F)ccc2-c2ccc(C(F)(F)F)cc2)NC(=O)NC1=O` (racemic) [Example 165, Rac-4-Fluoro-N-{[4-(5-Methyl-1,3-Thiazol-4-Yl)-2,5-Dioxoimidazolidin-4-Yl]Methyl}-4′-(Trifluoromethyl)[Biphenyl]-2-Carboxamide] and `Cc1ccc(C(=O)NCC2(c3ncsc3C)NC(=O)NC2=O)c(-c2ccc(C(F)(F)F)cc2)c1` (racemic) [Example 167, Rac-5-Methyl-N-{[4-(5-Methyl-1,3-Thiazol-4-Yl)-2,5-Dioxoimidazolidin-4-Yl]Methyl}-4′-(Trifluoromethyl)[Biphenyl]-2-Carboxamide] are within 1.5-fold of each other in IC50: 6.6 µM for the first, 4.4 µM for the second.

`Cc1scnc1C1(CNC(=O)c2ccc(F)cc2-c2ccc(Cl)cc2)NC(=O)NC1=O` (racemic) [Example 169, Rac-4′-Chloro-5-Fluoro-N-{[4-(5-Methyl-1,3-Thiazol-4-Yl)-2,5-Dioxoimidazolidin-4-Yl]Methyl}[Biphenyl]-2-Carboxamide] and `Cc1scnc1C1(CNC(=O)c2ccccc2-c2ccc(Cl)cc2)NC(=O)NC1=O` (racemic) [Example 171, Rac-4′-Chloro-N-{[4-(5-Methyl-1,3-Thiazol-4-Yl)-2,5-Dioxoimidazolidin-4-Yl]Methyl}[Biphenyl]-2-Carboxamide] are within 1.5-fold of each other in IC50: 8.5 µM for the first, 6.9 µM for the second.

Going from `Cn1nccc1C1(CNC(=O)c2cc(F)ccc2-c2ccc(C(F)(F)F)cc2)NC(=O)NC1=O` (racemic) [Example 177, Rac-4-Fluoro-N-{[4-(1-Methyl-1H-Pyrazol-5-Yl)-2,5-Dioxoimidazolidin-4-Yl]Methyl}-4′-(Trifluoromethyl)[Biphenyl]-2-Carboxamide] to `Cn1nccc1C1(CNC(=O)c2ccc(F)cc2-c2ccc(C(F)(F)F)cc2)NC(=O)NC1=O` (racemic) [Example 183, Rac-5-Fluoro-N-{[4-(1-Methyl-1H-Pyrazol-5-Yl)-2,5-Dioxoimidazolidin-4-Yl]Methyl}-4′-(Trifluoromethyl)[Biphenyl]-2-Carboxamide], the IC50 rises from 12 µM to 19 µM (1.6-fold).

`Cn1nccc1C1(CNC(=O)c2ccc(F)cc2-c2ccc(Cl)cc2)NC(=O)NC1=O` (racemic) [Example 179, Rac-4′-Chloro-5-Fluoro-N-{[4-(1-Methyl-1H-Pyrazol-5-Yl)-2,5-Dioxoimidazolidin-4-Yl]Methyl}[Biphenyl]-2-Carboxamide] and `Cn1nccc1C1(CNC(=O)c2ccccc2-c2ccc(Cl)cc2)NC(=O)NC1=O` (racemic) [Example 181, Rac-4′-Chloro-N-{[4-(1-Methyl-1H-Pyrazol-5-Yl)-2,5-Dioxoimidazolidin-4-Yl]Methyl}[Biphenyl]-2-Carboxamide] are the same in IC50: 12 µM for the first, 12 µM for the second.

In the case of `O=C1NC(=O)C(CNC(=O)c2ccc(F)cc2-c2ccc(C(F)(F)F)cc2)(c2cscn2)N1` (racemic) [Example 198, Rac-N-{[2,5-Dioxo-4-(1,3-Thiazol-4-Yl)Imidazolidin-4-Yl]Methyl}-5-Fluoro-4′-(Trifluoromethyl)[Biphenyl]-2-Carboxamide], the IC50 is reported as 39 µM.
